Tests used:
Assay in all cases: Eurofins enzymatic radiometric kinase assay
Format in all cases: biochemical
Conditions in all cases: ATP at Km, duplicate
TSSK3 = biological target: T1, TSSK3 (Homo sapiens, UniProt Q96PN8)
T1 construct: purchased Eurofins
T1 sequence (Q96PN8 1-268): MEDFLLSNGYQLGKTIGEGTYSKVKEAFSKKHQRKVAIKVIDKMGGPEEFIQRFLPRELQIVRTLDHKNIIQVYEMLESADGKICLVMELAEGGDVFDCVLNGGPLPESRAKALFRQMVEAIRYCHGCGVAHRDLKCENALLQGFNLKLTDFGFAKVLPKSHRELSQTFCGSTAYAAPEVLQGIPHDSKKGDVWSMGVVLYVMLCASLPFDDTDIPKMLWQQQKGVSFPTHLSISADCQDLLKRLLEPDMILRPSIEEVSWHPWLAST
Description: (§1) The column labeled “# < 10 PoC in enzyme panel” in Table 1 reports the number of kinases in this 17-member panel inhibited > 90% by each analog.
(§2) Details about the substrate used, protein constructs, controls, and assay protocol for these kinase assays are available at the Eurofins website: https://www.eurofinsdiscoveryservices.com. Reaction Biology Corp. (RBC) radiometric HotSpot kinase assays were carried out at the Km value for ATP in dose–response (10-pt curve) format for MYLK4, RIPK5, and YSK4 in Table S2. Details about the substrate used, protein constructs, controls, and assay protocol for these kinase assays are available at the RBC website: https://www.reactionbiology.com/list-kinase-targets-us-facility. SignalChem developed an ADP-Glo assay to test for enzymatic inhibition of PIKfyve in dose–response (10-pt curve) format in duplicate.

MARK3 = biological target: T2, MARK3 (Homo sapiens, UniProt P27448)
T2 construct: purchased Eurofins (radiometric) / Eurofins DiscoverX scanMAX / Reaction Biology / SignalChem
T2 sequence (P27448 whole entry): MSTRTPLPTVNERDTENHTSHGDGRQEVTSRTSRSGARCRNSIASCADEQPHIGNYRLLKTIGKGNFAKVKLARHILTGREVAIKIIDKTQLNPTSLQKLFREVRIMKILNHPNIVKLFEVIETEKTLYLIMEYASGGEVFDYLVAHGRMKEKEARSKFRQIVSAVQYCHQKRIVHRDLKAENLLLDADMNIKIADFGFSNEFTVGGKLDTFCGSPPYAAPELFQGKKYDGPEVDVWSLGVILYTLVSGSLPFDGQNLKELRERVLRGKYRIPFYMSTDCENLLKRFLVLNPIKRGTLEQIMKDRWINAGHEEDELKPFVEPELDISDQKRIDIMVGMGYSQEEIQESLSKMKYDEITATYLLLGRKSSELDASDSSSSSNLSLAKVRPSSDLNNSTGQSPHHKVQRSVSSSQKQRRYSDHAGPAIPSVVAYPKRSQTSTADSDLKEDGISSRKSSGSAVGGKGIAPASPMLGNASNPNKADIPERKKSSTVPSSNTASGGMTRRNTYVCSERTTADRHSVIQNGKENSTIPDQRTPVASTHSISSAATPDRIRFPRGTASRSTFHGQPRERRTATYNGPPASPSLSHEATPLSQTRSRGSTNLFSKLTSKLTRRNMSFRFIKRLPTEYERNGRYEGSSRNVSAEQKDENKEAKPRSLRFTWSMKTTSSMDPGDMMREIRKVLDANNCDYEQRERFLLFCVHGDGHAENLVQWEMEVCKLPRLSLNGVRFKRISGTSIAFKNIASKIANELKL
Description: as §1, §2

TSSK1 = biological target: T3, TSSK1 (Homo sapiens, UniProt Q9BXA7)
T3 construct: purchased Eurofins (radiometric) / Eurofins DiscoverX scanMAX / Reaction Biology / SignalChem
T3 sequence (Q9BXA7 1-367): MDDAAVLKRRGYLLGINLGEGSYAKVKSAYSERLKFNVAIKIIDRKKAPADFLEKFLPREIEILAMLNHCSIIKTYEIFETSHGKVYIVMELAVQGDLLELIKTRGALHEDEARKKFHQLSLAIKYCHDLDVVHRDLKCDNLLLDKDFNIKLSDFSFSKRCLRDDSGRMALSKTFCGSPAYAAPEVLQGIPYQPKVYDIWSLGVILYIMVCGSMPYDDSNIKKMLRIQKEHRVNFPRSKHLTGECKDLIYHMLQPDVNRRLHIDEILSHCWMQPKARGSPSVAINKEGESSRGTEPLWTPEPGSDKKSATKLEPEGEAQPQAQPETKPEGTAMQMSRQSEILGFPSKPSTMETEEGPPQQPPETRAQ
Description: as §1, §2

PAK6 = biological target: T4, PAK6 (Homo sapiens, UniProt Q9NQU5)
T4 construct: purchased Eurofins (radiometric) / Eurofins DiscoverX scanMAX / Reaction Biology / SignalChem
T4 sequence (Q9NQU5 whole entry): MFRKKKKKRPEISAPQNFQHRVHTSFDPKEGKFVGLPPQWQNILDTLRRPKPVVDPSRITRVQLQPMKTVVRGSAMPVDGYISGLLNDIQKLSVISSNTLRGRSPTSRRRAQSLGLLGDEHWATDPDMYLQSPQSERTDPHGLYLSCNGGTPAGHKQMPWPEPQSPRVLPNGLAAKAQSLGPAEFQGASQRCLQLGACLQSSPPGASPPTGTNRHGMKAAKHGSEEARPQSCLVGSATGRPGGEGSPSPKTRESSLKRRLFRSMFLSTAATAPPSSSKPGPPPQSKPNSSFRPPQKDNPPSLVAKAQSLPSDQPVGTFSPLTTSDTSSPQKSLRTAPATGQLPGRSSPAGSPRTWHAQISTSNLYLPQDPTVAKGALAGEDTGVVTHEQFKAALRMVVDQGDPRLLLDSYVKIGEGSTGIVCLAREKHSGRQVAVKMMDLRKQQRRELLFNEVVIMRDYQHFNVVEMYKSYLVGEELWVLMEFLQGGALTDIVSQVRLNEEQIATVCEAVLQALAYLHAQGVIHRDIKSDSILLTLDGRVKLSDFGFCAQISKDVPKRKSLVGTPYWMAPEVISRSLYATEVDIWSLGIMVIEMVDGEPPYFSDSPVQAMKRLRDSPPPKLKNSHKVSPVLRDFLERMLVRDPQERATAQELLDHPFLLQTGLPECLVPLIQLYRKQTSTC
Description: as §1, §2

TSSK4 = biological target: T5, TSSK4 (Homo sapiens, UniProt Q6SA08)
T5 construct: purchased Eurofins (radiometric) / Eurofins DiscoverX scanMAX / Reaction Biology / SignalChem
T5 sequence (Q6SA08 1-328): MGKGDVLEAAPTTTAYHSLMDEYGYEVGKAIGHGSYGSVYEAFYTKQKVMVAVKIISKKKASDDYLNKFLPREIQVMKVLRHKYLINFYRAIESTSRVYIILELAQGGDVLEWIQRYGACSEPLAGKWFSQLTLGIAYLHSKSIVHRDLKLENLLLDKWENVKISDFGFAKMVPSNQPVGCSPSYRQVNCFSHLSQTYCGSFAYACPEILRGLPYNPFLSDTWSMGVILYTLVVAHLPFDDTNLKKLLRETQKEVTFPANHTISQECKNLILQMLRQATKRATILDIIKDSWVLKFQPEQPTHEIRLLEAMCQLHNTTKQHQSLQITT
Description: as §1, §2

PAK4 = biological target: T6, PAK4 (Homo sapiens, UniProt O96013)
T6 construct: purchased Eurofins (radiometric) / Eurofins DiscoverX scanMAX / Reaction Biology / SignalChem
T6 sequence (O96013 whole entry): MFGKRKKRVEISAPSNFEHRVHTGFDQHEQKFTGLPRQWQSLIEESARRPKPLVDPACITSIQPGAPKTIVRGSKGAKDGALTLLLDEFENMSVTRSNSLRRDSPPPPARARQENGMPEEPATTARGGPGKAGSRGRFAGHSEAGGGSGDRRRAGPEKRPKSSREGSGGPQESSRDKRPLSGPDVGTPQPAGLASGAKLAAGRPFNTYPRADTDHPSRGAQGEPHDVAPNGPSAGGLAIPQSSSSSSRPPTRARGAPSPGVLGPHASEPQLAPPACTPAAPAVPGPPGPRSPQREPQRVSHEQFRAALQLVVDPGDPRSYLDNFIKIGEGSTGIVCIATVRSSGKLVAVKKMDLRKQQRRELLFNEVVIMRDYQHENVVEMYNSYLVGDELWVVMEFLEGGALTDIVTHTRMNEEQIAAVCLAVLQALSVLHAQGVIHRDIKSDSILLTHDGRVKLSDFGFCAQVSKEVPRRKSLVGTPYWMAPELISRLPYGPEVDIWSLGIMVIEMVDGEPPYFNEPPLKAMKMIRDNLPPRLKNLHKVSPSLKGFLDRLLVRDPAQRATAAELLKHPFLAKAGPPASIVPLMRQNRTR
Description: as §1, §2

MARK4 = biological target: T7, MARK4 (Homo sapiens, UniProt Q96L34)
T7 construct: purchased Eurofins (radiometric) / Eurofins DiscoverX scanMAX / Reaction Biology / SignalChem
T7 sequence (Q96L34 1-752): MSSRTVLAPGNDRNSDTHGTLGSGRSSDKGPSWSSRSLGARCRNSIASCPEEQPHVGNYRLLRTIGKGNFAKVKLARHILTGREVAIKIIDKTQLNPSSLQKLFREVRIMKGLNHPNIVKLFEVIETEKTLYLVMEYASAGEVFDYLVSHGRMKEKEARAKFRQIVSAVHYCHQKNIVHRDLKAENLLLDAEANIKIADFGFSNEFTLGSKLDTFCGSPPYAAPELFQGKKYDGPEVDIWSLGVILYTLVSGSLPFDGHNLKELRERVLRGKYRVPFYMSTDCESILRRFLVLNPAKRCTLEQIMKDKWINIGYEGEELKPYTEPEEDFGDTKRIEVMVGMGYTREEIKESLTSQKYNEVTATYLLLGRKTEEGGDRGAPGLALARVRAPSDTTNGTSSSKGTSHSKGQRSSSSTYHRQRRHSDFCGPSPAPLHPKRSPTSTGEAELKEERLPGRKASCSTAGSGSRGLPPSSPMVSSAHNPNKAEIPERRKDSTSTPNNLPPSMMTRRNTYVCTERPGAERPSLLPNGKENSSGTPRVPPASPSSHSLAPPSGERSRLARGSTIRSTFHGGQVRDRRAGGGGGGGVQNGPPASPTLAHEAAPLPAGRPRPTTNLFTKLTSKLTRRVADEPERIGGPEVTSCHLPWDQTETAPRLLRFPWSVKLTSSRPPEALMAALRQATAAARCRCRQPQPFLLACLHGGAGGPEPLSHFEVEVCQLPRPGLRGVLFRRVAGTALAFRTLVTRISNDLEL
Description: as §1, §2

MAP4K5 = biological target: T8, MAP4K5 (Homo sapiens, UniProt Q9Y4K4)
T8 construct: purchased Eurofins
T8 sequence (Q9Y4K4 whole entry): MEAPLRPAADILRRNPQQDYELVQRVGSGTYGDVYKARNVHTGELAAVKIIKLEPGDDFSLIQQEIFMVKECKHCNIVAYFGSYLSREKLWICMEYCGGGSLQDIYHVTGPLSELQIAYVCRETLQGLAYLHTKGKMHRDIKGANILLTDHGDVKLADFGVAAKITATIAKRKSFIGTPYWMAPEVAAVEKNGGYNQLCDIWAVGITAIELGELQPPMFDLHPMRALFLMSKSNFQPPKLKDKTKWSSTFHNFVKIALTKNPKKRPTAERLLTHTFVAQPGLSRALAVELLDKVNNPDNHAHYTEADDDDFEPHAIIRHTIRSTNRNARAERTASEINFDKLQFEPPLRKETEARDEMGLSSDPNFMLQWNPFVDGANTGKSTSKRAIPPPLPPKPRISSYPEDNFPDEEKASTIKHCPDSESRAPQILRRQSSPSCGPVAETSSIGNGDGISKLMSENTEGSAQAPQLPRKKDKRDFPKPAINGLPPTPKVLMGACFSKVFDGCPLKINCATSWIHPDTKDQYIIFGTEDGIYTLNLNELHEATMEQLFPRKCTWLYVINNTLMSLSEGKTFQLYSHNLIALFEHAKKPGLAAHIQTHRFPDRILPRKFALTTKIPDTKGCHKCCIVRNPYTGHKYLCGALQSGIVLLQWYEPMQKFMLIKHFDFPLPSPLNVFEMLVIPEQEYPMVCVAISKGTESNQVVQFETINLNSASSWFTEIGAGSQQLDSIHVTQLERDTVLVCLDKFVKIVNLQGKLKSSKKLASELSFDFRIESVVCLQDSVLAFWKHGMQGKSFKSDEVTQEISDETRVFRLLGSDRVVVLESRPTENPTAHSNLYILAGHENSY
Description: as §1, §2

TSSK2 = biological target: T9, TSSK2 (Homo sapiens, UniProt Q96PF2)
T9 construct: purchased Eurofins (radiometric) / Eurofins DiscoverX scanMAX / Reaction Biology / SignalChem
T9 sequence (Q96PF2 1-358): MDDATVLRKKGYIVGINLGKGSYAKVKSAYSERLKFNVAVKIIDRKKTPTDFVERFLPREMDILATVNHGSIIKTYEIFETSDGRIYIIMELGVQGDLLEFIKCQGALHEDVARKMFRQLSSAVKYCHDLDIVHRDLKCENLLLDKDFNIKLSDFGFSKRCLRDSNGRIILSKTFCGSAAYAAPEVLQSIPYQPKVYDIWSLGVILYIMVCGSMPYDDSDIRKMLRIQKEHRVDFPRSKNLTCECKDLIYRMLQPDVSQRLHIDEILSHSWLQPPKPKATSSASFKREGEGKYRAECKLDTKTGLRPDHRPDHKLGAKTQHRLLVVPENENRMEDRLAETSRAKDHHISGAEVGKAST
Description: as §1, §2

PAK3 = biological target: T10, PAK3 (Homo sapiens, UniProt O75914)
T10 construct: purchased Eurofins (radiometric) / Eurofins DiscoverX scanMAX / Reaction Biology / SignalChem
T10 sequence (O75914 whole entry): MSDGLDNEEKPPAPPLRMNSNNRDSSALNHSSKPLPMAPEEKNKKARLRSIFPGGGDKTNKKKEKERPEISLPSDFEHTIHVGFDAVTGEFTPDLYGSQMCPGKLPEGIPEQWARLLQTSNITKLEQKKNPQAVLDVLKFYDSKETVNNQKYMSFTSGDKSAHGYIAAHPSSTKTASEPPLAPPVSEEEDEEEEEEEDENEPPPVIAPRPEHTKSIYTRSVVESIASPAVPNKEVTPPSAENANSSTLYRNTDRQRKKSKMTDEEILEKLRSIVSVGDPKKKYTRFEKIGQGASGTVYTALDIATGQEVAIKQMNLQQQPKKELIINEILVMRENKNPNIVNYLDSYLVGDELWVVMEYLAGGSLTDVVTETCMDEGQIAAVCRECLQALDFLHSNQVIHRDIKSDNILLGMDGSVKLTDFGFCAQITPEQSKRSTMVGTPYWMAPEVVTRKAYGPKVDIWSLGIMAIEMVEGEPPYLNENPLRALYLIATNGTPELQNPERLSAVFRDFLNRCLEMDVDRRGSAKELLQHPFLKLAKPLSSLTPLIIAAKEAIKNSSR
Description: as §1, §2

With `CC(C)(O)C#Cc1ccc2[nH]c3c(c2c1)-c1nc(N)ncc1CCC3` [AMG28, reference compound] the “TSSK3 PoC at 1 μM” value (TSSK3) was 1 PoC, the “MARK3 PoC at 1 μM” value (MARK3) was 12 PoC and the “TSSK1 PoC at 1 μM” value (TSSK1) was 10 PoC. For the same molecule, the “PAK6 PoC at 1 μM” value (PAK6) was 6 PoC, the “TSSK4 PoC at 1 μM” value (TSSK4) was 70 PoC and the “PAK4 PoC at 1 μM” value (PAK4) was 8 PoC. The “MARK4 PoC at 1 μM” value (MARK4) was 18 PoC, the “MAP4K5 PoC at 1 μM” value (MAP4K5) was 1 PoC and the “TSSK2 PoC at 1 μM” value (TSSK2) was 57 PoC. The “PAK3 PoC at 1 μM” value (PAK3) was 86 PoC.
With `CC(C)(O)C#Cc1ccc2[nH]c3c(c2c1)-c1nc(N)ncc1CC3` [Compound 1] the “TSSK3 PoC at 1 μM” value (TSSK3) was 11 PoC, the “MARK3 PoC at 1 μM” value (MARK3) was 56 PoC and the “TSSK1 PoC at 1 μM” value (TSSK1) was 48 PoC. For the same molecule, the “PAK6 PoC at 1 μM” value (PAK6) was 51 PoC, the “TSSK4 PoC at 1 μM” value (TSSK4) was 55 PoC and the “PAK4 PoC at 1 μM” value (PAK4) was 58 PoC. The “MARK4 PoC at 1 μM” value (MARK4) was 53 PoC, the “MAP4K5 PoC at 1 μM” value (MAP4K5) was 3 PoC and the “TSSK2 PoC at 1 μM” value (TSSK2) was 88 PoC. The “PAK3 PoC at 1 μM” value (PAK3) was 86 PoC.
`CC(C)(O)C#Cc1ccc2[nH]c3c(c2c1)-c1nc(N)ncc1CCCC3` [Compound 2] was tested, and the “TSSK3 PoC at 1 μM” value (TSSK3) was 120 PoC, the “MARK3 PoC at 1 μM” value (MARK3) was 76 PoC and the “TSSK1 PoC at 1 μM” value (TSSK1) was 82 PoC. For the same molecule, the “PAK6 PoC at 1 μM” value (PAK6) was 77 PoC, the “TSSK4 PoC at 1 μM” value (TSSK4) was 77 PoC and the “PAK4 PoC at 1 μM” value (PAK4) was 67 PoC. For the same molecule, the “MARK4 PoC at 1 μM” value (MARK4) was 86 PoC, the “MAP4K5 PoC at 1 μM” value (MAP4K5) was 9 PoC and the “TSSK2 PoC at 1 μM” value (TSSK2) was 76 PoC. For the same molecule, the “PAK3 PoC at 1 μM” value (PAK3) was 100 PoC.
For `CC(C)(O)C#Cc1ccc2[nH]cc(-c3ccnc(N)n3)c2c1` [Compound 3], the “TSSK3 PoC at 1 μM” value (TSSK3) was 5 PoC, the “MARK3 PoC at 1 μM” value (MARK3) was 46 PoC and the “TSSK1 PoC at 1 μM” value (TSSK1) was 30 PoC. The “PAK6 PoC at 1 μM” value (PAK6) was 40 PoC, the “TSSK4 PoC at 1 μM” value (TSSK4) was 78 PoC and the “PAK4 PoC at 1 μM” value (PAK4) was 30 PoC. The “MARK4 PoC at 1 μM” value (MARK4) was 43 PoC, the “MAP4K5 PoC at 1 μM” value (MAP4K5) was 1 PoC and the “TSSK2 PoC at 1 μM” value (TSSK2) was 78 PoC. For the same molecule, the “PAK3 PoC at 1 μM” value (PAK3) was 104 PoC.
For `COC(C)(C)C#Cc1ccc2[nH]c3c(c2c1)-c1nc(N)ncc1CCC3` [Compound 11], the “TSSK3 PoC at 1 μM” value (TSSK3) was 75 PoC, the “MARK3 PoC at 1 μM” value (MARK3) was 104 PoC and the “TSSK1 PoC at 1 μM” value (TSSK1) was 89 PoC. For the same molecule, the “PAK6 PoC at 1 μM” value (PAK6) was 92 PoC, the “TSSK4 PoC at 1 μM” value (TSSK4) was 101 PoC and the “PAK4 PoC at 1 μM” value (PAK4) was 91 PoC. For the same molecule, the “MARK4 PoC at 1 μM” value (MARK4) was 103 PoC, the “MAP4K5 PoC at 1 μM” value (MAP4K5) was 9 PoC and the “TSSK2 PoC at 1 μM” value (TSSK2) was 86 PoC. The “PAK3 PoC at 1 μM” value (PAK3) was 100 PoC.
